Measurements published in patent US8431596B2 (Cancer Research Technology Limited, priority 2007, dated 2013).
pIC50: −log10 of the molar value.

Target: T1, AXL (human catalytic domain) (Homo sapiens, UniProt P30530)
T1 construct: purchased Upstate Ltd. 14-512
T1 sequence (P30530 473-894): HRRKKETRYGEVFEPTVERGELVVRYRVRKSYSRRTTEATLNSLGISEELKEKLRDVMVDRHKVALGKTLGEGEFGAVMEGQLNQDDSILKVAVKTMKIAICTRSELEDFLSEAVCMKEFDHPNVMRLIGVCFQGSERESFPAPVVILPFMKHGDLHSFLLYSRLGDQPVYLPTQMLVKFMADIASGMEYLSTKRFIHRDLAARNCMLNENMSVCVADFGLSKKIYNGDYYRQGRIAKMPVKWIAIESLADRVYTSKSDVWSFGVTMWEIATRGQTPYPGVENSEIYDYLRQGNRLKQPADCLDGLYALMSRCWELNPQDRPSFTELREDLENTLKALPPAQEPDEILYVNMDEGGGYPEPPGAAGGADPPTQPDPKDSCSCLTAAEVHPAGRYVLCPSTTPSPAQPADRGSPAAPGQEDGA
Assay: AXL (human catalytic domain) Enzyme Activity Assay (IMAP fluorescence polarisation)
Assay type: biochemical
Protocol: Biological Methods AXL (human catalytic domain) Enzyme Activity Assay Reagents
Kinase Assay Reaction Buffer: This consisted of 20 mM HEPES pH 7.0, 10 mM MgCl2, 1 mM DTT, […], 0.01% Triton X100 (v/v), and 0.01% BSA (w/v). All buffer components were purchased from Sigma-Aldrich at reagent grade or higher.
Kinase: Recombinant AXL isoform 1 (aa473-894 corresponding to Genbank Accession Number NP 068713) at 2 mg/mL (20.8 μM) was purchased from Upstate Ltd. (Product code 14-512, lot #28164U). The enzyme was stored at −80° C. and a working stock was prepared to a concentration of 30 nM by diluting 20.8 μM stock 1:693 in cold (4° C.) 1× Reaction Buffer. Final enzyme concentration in the assay was 15 nM.
Substrate: Fluorescein labelled CSK-tide 5FAM-[…]-NH2 was obtained from Molecular Devices (Product code R7270) and used at a working concentration of 200 nM by diluting the 100 μM stock 1:500 in 1× Reaction Buffer in a mix with the enzyme. A negative control (lacking enzyme) was prepared at the same concentrations. Final substrate concentration in the assay was 100 nM.
ATP: Supplied by Sigma (product code A-7699). A 100 mM ATP stock was prepared in […] and used at a working concentration of 375 μM by diluting the 100 mM stock 1:266.6 in Reaction Buffer. Final ATP concentration in the assay was 150 μM; this concentration represents the KM.ATP for this enzyme calculated in this assay.
IMAP Reagents: IMAP screening express kit was obtained from Molecular Devices (product code R8127). The binding reagent was gently re-suspended before diluting by 1:1000 in buffer (Binding Buffer is supplied as a 5× stock and so was diluted with water prior to use—this assay used 40% buffer A and 60% buffer B) and then vortexed before addition to wells. The binding reagent was used at a final dilution of 1:1333.
1 μL samples of test compounds in 10% DMSO/water were added to “test” wells by dry-spotting using a Matrix Platemate Plus. 5 μL Kinase/Substrate in Reaction Buffer were added to columns 1-22 of a Corning black low binding 384 well #6754 (90 μL volume) microplate to give 12 nM and 100 nM reaction concentration respectively. 5 μL substrate in Reaction Buffer was added to columns 23 and 24 to give 100 nM reaction concentration. 4 μL ATP in Reaction Buffer was added to all wells to give 150 μM reaction concentration. The reaction mixture was then incubated at room temperature for 60 minutes. The incubation period was followed by the addition of 20 μL IMAP Binding Reagent in Binding Buffer to all wells. The IMAP reaction detection was further incubated at room temperature overnight. The FP on a Tecan Ultra Plate reader was recorded as a single read at Ex485 Em535.
Percentage inhibition was calculated based on activity of the test sample minus the average values in the blank wells relative to the average values measured in control wells minus the average values in the blank wells.
IC50 values were calculated from 10 point dose sigmoid ‘dose-response’ curves using XIfit software (IDBS Inc, USA). Data were fitted to a 4 parameter logistic model/sigmoidal dose response defined by the following equation:
[formula] where: • A=fit minimum (locked to 0); • B=fit maximum (locked to 100); • C=fit midpoint (pre-fit to 1); and • D=slope at linear portion of curve, hillslope (pre-fit to 0.1).
The value for C represents the IC50 of the test compound.

[1] = further data set (WW-001 through WW-169, XX-001 through XX-469, YY-001 through YY-016, ZZ-001 through ZZ-003), 150 μM ATP
[2] = first data set, recombinant AXL isoform 1 aa473-894, 150 μM ATP

Compound	pIC50 [1]	pIC50 [2]
Nc1cccc(-c2cccc3nc(Nc4ccc(OCCN5CCCC5)cc4)nn23)c1 [XX-255, [5-(3-Amino-phenyl)-[1,2,4]triazolo[1,5-a]pyridin-2-yl]-[4-(2-pyrrolidin-1-yl-ethoxy)-phenyl]-amine]	6.00 to 7.00	–
Nc1nnc(SCCn2cc(-c3cccc4nc(Nc5ccc(OCCN6CCCC6)cc5)nn34)cn2)[nH]1 [XX-327, (5-{1-[2-(5-Amino-4H-[1,2,4]triazol-3-ylsulfanyl)-ethyl]-1H-pyrazol-4-yl}-[1,2,4]triazolo[1,5-a]pyridin-2-yl)-[4-(2-pyrrolidin-1-yl-ethoxy)-phenyl]-amine]	5.00 to 6.00	–
COc1ccc(-c2cccc3nc(Nc4ccc(C(=O)NCCN(C)C)cc4)nn23)cc1 [XX-036]	5.00 to 6.00	> 6.00
CC(C)CS(=O)(=O)n1cc(-c2cccc3nc(Nc4ccc(OCCN5CCCC5)cc4)nn23)cn1 [XX-284]	6.00 to 7.00	–
COc1ccc(-c2cccc3nc(Nc4ccc(OCCCN)cc4)nn23)cc1 [XX-041, [4-(3-Amino-propoxy)-phenyl]-[5-(4-methoxy-phenyl)-[1,2,4]triazolo[1,5-a]pyridin-2-yl]-amine]	6.00 to 7.00	> 6.00
CCN(CC)CCNc1ccc(-c2cccc3nc(NC(=O)C4CC4)nn23)cc1 [WW-153, Cyclopropanecarboxylic acid {5-[4-(2-diethylamino-ethylamino)-phenyl]-[1,2,4]triazolo[1,5-a]pyridin-2-yl}-amide]	5.00 to 6.00	5.00 to 6.00
Cc1ccccc1COc1cccc(-c2cccc3nc(Nc4ccc(OCCN5CCCC5)cc4)nn23)c1 [XX-400]	5.00 to 6.00	–
CNCCOc1ccc(Nc2nc3cccc(-c4ccc5c(c4)OCCO5)n3n2)cc1C [XX-103]	6.00 to 7.00	–
CN(C)CCOc1cc(Nc2nc3cccc(-c4ccc5c(c4)OCCO5)n3n2)ccn1 [XX-079]	≥ 7.00	> 6.00
Cc1cccc(-c2cccc3nc(Nc4ccc(OCCN5CCCC5)cc4)nn23)c1 [XX-213]	6.00 to 7.00	–
Cc1cccc(CS(=O)(=O)n2cc(-c3cccc4nc(Nc5ccc(OCCN6CCCC6)cc5)nn34)cn2)c1 [XX-286]	6.00 to 7.00	–
CNCCOc1ccc(Nc2nc3cccc(-c4ccc(OC)cc4)n3n2)cc1 [XX-022]	6.00 to 7.00	> 6.00
c1ccc2cc(-c3cccc4nc(Nc5ccc(OCCN6CCCC6)cc5)nn34)ccc2c1 [XX-242]	6.00 to 7.00	–
COc1ccc(-c2cccc3nc(NC(=O)C4CC4)nn23)cc1 [WW-005, cyclopropanecarboxylic acid [5-(4-methoxy-phenyl)-[1,2,4]triazolo[1,5-a]pyridin-2-yl]-amide]	6.00 to 7.00	> 6.00
Clc1cccc(CNc2ccc(-c3cccc4nc(Nc5ccc(OCCN6CCCC6)cc5)nn34)cc2)c1 [XX-223, {5-[4-(3-Chloro-benzylamino)-phenyl]-[1,2,4]triazolo[1,5-a]pyridin-2-yl}-[4-(2-pyrrolidin-1-yl-ethoxy)-phenyl]-amine]	5.00 to 6.00	–
O=C(Cc1cccc(Cl)c1)Nc1cccc(-c2cccc3nc(Nc4ccc(OCCN5CCCC5)cc4)nn23)c1 [XX-227, 2-(3-Chloro-phenyl)-N-(3-{2-[4-(2-pyrrolidin-1-yl-ethoxy)-phenylamino]-[1,2,4]triazolo[1,5-a]pyridin-5-yl}-phenyl)-acetamide]	5.00 to 6.00	–
CC(C)CCCn1cc(-c2cccc3nc(Nc4ccc(OCCN5CCCC5)cc4)nn23)cn1 [XX-345]	6.00 to 7.00	–
O=C(Nc1nc2cccc(NCCc3c[nH]c4ccccc34)n2n1)C1CC1 [WW-077]	5.00 to 6.00	5.00 to 6.00
CN(C)C(=O)c1ccc(-c2cccc3nc(NC(=O)C4CC4)nn23)cc1 [WW-029]	5.00 to 6.00	5.00 to 6.00
c1coc(CSCCn2cc(-c3cccc4nc(Nc5ccc(OCCN6CCCC6)cc5)nn34)cn2)c1 [XX-427]	6.00 to 7.00	–
CS(=O)(=O)Nc1ccc(-c2cccc3nc(NC(=O)C4CC4)nn23)cc1 [WW-017]	5.00 to 6.00	5.00 to 6.00
O=C(Nc1nc2cccc(-c3ccc(N4CCOCC4)nc3)n2n1)C1CC1 [WW-062]	5.00 to 6.00	5.00 to 6.00
O=C(Nc1cccc(-c2cccc3nc(Nc4ccc(OCCN5CCCC5)cc4)nn23)c1)c1ccccc1 [XX-179]	6.00 to 7.00	–
COc1cccc(NC(=O)Nc2cccc(-c3cccc4nc(Nc5ccc(OCCN6CCCC6)cc5)nn34)c2)c1 [XX-230]	5.00 to 6.00	–

Continued, values first:

pIC50 [1]	pIC50 [2]	Compound
6.00 to 7.00	> 6.00	COCCNCCOc1ccc(Nc2nc3cccc(-c4ccc(OC)cc4)n3n2)cc1 [XX-031]
6.00 to 7.00	–	CCCCCS(=O)(=O)n1cc(-c2cccc3nc(Nc4ccc(OCCN5CCCC5)cc4)nn23)cn1 [XX-384]
5.00 to 6.00	5.00 to 6.00	CN1CCCC1CCNc1cccc2nc(NC(=O)C3CC3)nn12 (stereo not shown) [WW-076]
6.00 to 7.00	> 6.00	O=C(Nc1nc2cccc(-c3ccc(O)cc3)n2n1)C1CC1 [WW-022, cyclopropanecarboxylic acid [5-(4-hydroxy-phenyl)-[1,2,4]triazolo[1,5-a]pyridin-2-yl]-amide]
6.00 to 7.00	–	CCN(CC)CCNc1cc(Nc2nc3cccc(-c4ccc(OC)cc4)n3n2)ccn1 [XX-300]
5.00 to 6.00	5.00 to 6.00	O=C(Nc1nc2cccc(-c3ccc(F)cc3)n2n1)C1CC1 [WW-013]
5.00 to 6.00	–	CCN(CC)CCOc1ccc(Nc2nc3cccc(-c4ccc(OC)cc4)n3n2)cc1F [XX-412]
6.00 to 7.00	–	CC(Sc1ccc(Nc2nc3cccc(-c4ccc5c(c4)OCCO5)n3n2)cc1)C(N)=O (stereo not shown) [XX-161]
5.00 to 6.00	–	NC(=O)COc1cccc(-c2cccc3nc(Nc4ccc(OCCN5CCCC5)cc4)nn23)c1 [XX-404]
6.00 to 7.00	> 6.00	CN(C)c1ccc(-c2cccc3nc(NC(=O)C4CC4)nn23)cc1 [WW-069]
6.00 to 7.00	> 6.00	COc1ccc(-c2cccc3nc(Nc4ccc(OCCNCc5ccccn5)cc4)nn23)cc1 [XX-029]
6.00 to 7.00	–	c1ccc(Cn2cc(-c3nccc4nc(Nc5ccc(OCCN6CCCC6)cc5)nn34)cn2)cc1 [YY-011, [5-(1-Benzyl-1H-pyrazol-4-yl)-[1,2,4]triazolo[1,5-c]pyrimidin-2-yl]-[4-(2-pyrrolidin-1-yl-ethoxy)-phenyl]-amine]
6.00 to 7.00	> 6.00	O=C(Nc1nc2cccc(-c3ccc4c(c3)CCO4)n2n1)C1CC1 [WW-159]
≥ 7.00	> 6.00	CN(C)CCOc1ccc(Nc2nc3cccc(-c4ccc5c(c4)OCCO5)n3n2)cc1 [XX-055]
6.00 to 7.00	–	Cn1cc(-c2cccc(-c3cccc4nc(Nc5ccc(OCCN6CCCC6)cc5)nn34)c2)cn1 [XX-171]
6.00 to 7.00	–	C[C@H](N)COc1ccc(Nc2nc3cccc(-c4ccc5c(c4)OCCO5)n3n2)cc1 [XX-143, [4-((S)-2-Amino-propoxy)-phenyl]-[5-(2,3-dihydro-benzo[1,4]dioxin-6-yl)-[1,2,4]triazolo[1,5-a]pyridin-2-yl]-amine]
5.00 to 6.00	5.00 to 6.00	COc1ccc(-c2cccc3nc(NC(=O)C4CCCC4)nn23)cc1 [WW-046]
5.00 to 6.00	–	CN(C)C(=O)c1ccc(-c2cccc3nc(Nc4ccc(OCCN5CCCC5)cc4)nn23)cc1 [XX-239]
